Test results: ChEMBL document CHEMBL1821720, “Discovery and hit-to-lead optimization of novel allosteric glucokinase activators” (Bioorg Med Chem Lett, 2011)

Legend:
[1] = target: T1, Hexokinase-4 (Homo sapiens) (UniProt P35557); assay: Activation of human recombinant glucokinase expressed in Escherichia coli coexpressing G6PDH at 10 uM using 20 mM glucose measured as ratio of enzyme activation in compound treated to Ro-28-1675 by G6PDH coupled continuous spectrophotometric assay
T1 sequence (whole entry): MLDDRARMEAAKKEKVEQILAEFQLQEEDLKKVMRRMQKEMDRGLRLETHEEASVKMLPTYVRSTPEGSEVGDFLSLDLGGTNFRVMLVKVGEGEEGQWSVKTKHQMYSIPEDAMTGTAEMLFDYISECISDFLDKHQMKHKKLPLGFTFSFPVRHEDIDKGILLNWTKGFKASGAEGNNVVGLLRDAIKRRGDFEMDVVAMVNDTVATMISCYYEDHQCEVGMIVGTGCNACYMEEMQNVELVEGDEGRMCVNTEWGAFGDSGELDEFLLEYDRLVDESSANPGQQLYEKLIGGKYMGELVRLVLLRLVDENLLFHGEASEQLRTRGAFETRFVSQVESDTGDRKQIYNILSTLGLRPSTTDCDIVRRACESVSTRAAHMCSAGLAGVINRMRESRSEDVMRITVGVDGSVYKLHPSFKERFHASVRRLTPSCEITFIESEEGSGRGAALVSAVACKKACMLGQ

[2] = target: T1, Hexokinase-4 (Homo sapiens); assay: Activation of human recombinant glucokinase expressed in Escherichia coli coexpressing G6PDH at 10 uM using 5 mM glucose measured as ratio of enzyme activation in treated to untreated control by G6PDH coupled continuous spectrophotometric assay
[3] = target: T1, Hexokinase-4 (Homo sapiens); assay: Activation of human recombinant glucokinase expressed in Escherichia coli coexpressing G6PDH at 10 uM using 5 mM glucose by G6PDH coupled continuous spectrophotometric assay relative to Ro-28-1675
[4] = target: T1, Hexokinase-4 (Homo sapiens); assay: Activation of human recombinant glucokinase expressed in Escherichia coli coexpressing G6PDH at 10 uM using 5 mM glucose measured as ratio of enzyme activation in compound treated to Ro-28-1675 by G6PDH coupled continuous spectrophotometric assay
[5] = target: T1, Hexokinase-4 (Homo sapiens); assay: Activation of human recombinant glucokinase expressed in Escherichia coli coexpressing G6PDH at 10 uM using 20 mM glucose measured as ratio of enzyme activation in treated to untreated control by G6PDH coupled continuous spectrophotometric assay
[6] = target: T1, Hexokinase-4 (Homo sapiens); assay: Activation of human recombinant glucokinase expressed in Escherichia coli coexpressing G6PDH at 10 uM using 20 mM glucose by G6PDH coupled continuous spectrophotometric assay relative to Ro-28-1675

| Compound | Ratio [1] | Ratio [2] | Activity [3] | Ratio [4] | Ratio [5] | Activity [6] |
| --- | --- | --- | --- | --- | --- | --- |
| Cc1sc(-c2ccccc2C(N)=O)cc1C(=O)Nc1nc2c(s1)CCC2 | 0.713 | 3.34 | 69% | 0.714 | 1.8 | – |
| CC(=O)c1ccccc1-c1cc(C(=O)Nc2nc3c(s2)CCC3)c(C)s1 | 0.627 | 3.52 | 66% | 0.66 | 1.71 | 63% |
| Cc1cc(C(=O)Nc2nc3c(s2)CCC3)c(C)s1 | 0.231 | 2.22 | 20% | 0.312 | 1.37 | 20% |
| CNC(=O)CCc1cc(C(=O)Nc2nc3c(s2)CCC3)c(C)o1 | 0.027 | 1.12 | – | 0.032 | 1.04 | – |
| CC(=O)c1ccccc1-c1cc(C(=O)Nc2nc3c(s2)CCC3)cs1 | 0.296 | 2.02 | – | 0.274 | 1.45 | – |
| Cc1cc(C(=O)Nc2nc3c(s2)CCCC3)c(C)o1 | 0.072 | 1.99 | – | 0.215 | 1.14 | – |
| Cc1oc(-c2cccc(C#N)c2)cc1C(=O)Nc1nc2c(s1)CCC2 | -0.09 | 0.99 | – | -0.002 | 0.85 | – |
| CC(=O)Oc1ccccc1-c1cc(C(=O)Nc2nc3c(s2)CCC3)c(C)o1 | -0.072 | 0.95 | – | -0.012 | 0.88 | – |
| O=C(Nc1nc2c(s1)CCCC2)C1CCOC1 (centres undefined) | -0.041 | 0.98 | – | -0.006 | 0.93 | – |
| Cc1cc(C(=O)Nc2nc3c(s2)CCC3)c(C)o1 | 0.247 | 1.88 | 20% | 0.219 | 1.42 | 20% |
| O=C(Nc1nc(C2CCCCC2)cs1)c1ccccc1 | 0.029 | 1.35 | – | 0.049 | 1.06 | – |
| CCc1oc(-c2ccccc2C(N)=O)cc1C(=O)Nc1nc2c(s1)CCC2 | 0.509 | 2.61 | – | 0.453 | 1.61 | – |
| CC(=O)CCc1cc(C(=O)Nc2nc3c(s2)CCC3)c(C)o1 | 0.287 | 2.07 | – | 0.29 | 1.44 | – |
| CCc1sc(-c2ccccc2C(N)=O)cc1C(=O)Nc1nc2c(s1)CCC2 | 0.736 | 3.7 | 69% | 0.69 | 1.92 | 69% |
| CC(=O)OCc1cc(C(=O)Nc2nc3c(s2)CCC3)c(C)o1 | 0.305 | 2.35 | – | 0.312 | 1.51 | – |
